# Marks after values point to notes of the source that are not given here.
# Columns and labels:
# [1] = system: superficial vaginal cells; assay: Vaginal cytology, percentage of superficial cells, Example 3; assay type: in vivo, postmenopausal women
# Procedure: Efficacy was measured with composite scores of vaginal symptoms (dryness, soreness, and irritation) and vaginal health (secretions, epithelial integrity, surface thickness, and pH). Vaginal and urethral cytology analyses were also performed, and the vaginal maturation value was determined. Safety assessments included endometrial biopsies.
# All vaginal tablets were identical in appearance. Patients inserted 1 tablet daily for 14 days. Thereafter, patients inserted 1 tablet twice per week (Sunday and Thursday) for the remainder of the trial. Patients were to insert the tablets at the same time each day (preferably at bedtime). Patients were evaluated for efficacy and safety at Week - 4 (screening), Week 0 (baseline), and Weeks 2, 7, and 12.
# Vaginal and urethral cell samples were harvested and analyzed by independent cytologists to determine the percentages of parabasal, intermediate, and superficial cells. Maturation values were calculated according to the following equation: maturation value = 1.0 × [superficial cells, %] + 0.5 × [intermediate cells, %] [formula] Endometrial biopsies were performed at the end of the study in patients with intact uteri. The number of patients with abnormal biopsies was compared between treatment groups.
# [2] = system: postmenopausal women with atrophic vaginitis; assay: Vaginal health composite score (investigator rating), Example 3; assay type: in vivo; conditions: each treatment group (25 or 10 µg E2); Week 0 (baseline); scale 0-3
# Procedure: Efficacy was measured with composite scores of vaginal symptoms (dryness, soreness, and irritation) and vaginal health (secretions, epithelial integrity, surface thickness, and pH). Vaginal and urethral cytology analyses were also performed, and the vaginal maturation value was determined. Safety assessments included endometrial biopsies. […] All vaginal tablets were identical in appearance. Patients inserted 1 tablet daily for 14 days. Thereafter, patients inserted 1 tablet twice per week (Sunday and Thursday) for the remainder of the trial. Patients were to insert the tablets at the same time each day (preferably at bedtime). Patients were evaluated for efficacy and safety at Week - 4 (screening), Week 0 (baseline), and Weeks 2, 7, and 12. […] Differences within and between treatment groups were analyzed using an analysis of variance (ANOVA). […] Efficacy was measured with composite scores of vaginal symptoms (dryness, soreness, and irritation) and vaginal health (secretions, epithelial integrity, surface thickness, and pH). Vaginal and urethral cytology analyses were also performed, and the vaginal maturation value was determined. […] Patients were evaluated for efficacy and safety at Week - 4 (screening), Week 0 (baseline), and Weeks 2, 7, and 12. […] Differences within and between treatment groups were analyzed using an analysis of variance (ANOVA).
smiles,measurement,setting,value
"C[C@]12CC[C@@H]3c4ccc(O)cc4CC[C@H]3[C@@H]1CC[C@@H]2O [E2, 17β-estradiol]","percentage of superficial vaginal cells, Mean","[1]; 10 µg E2, Week 0",3.1%
same,"percentage of superficial vaginal cells, Mean","[1]; 10 µg E2, Week 2",28.3%
same,"percentage of superficial vaginal cells, mean Change from baseline","[1]; 10 µg E2, Week 2",25.0^a %
same,"percentage of superficial vaginal cells, mean Change from baseline","[1]; 10 µg E2, Week 7",17.1%
same,"percentage of superficial vaginal cells, mean Change from baseline","[1]; 10 µg E2, Week 12",16.9^d %
same,"percentage of superficial vaginal cells, Mean","[1]; 25 µg E2, Week 0",4.0%
same,"percentage of superficial vaginal cells, Mean","[1]; 25 µg E2, Week 2",34.2%
same,"percentage of superficial vaginal cells, mean Change from baseline","[1]; 25 µg E2, Week 2",30.7^a %
same,"percentage of superficial vaginal cells, Mean","[1]; 25 µg E2, Week 7",28.2%
same,"percentage of superficial vaginal cells, mean Change from baseline","[1]; 25 µg E2, Week 7","23.9^b,c %"
same,"percentage of superficial vaginal cells, mean Change from baseline","[1]; 25 µg E2, Week 12",15.4%
same,vaginal health composite score,[2],approximately 1.7
